Experimental data from patent US7745426B2, “Compositions and methods for reducing the risk of epileptic occurrence and/or for treatment of seizure disorders” (D-Pharm Ltd., priority 2003, dated 2010).
Counter-ions that a name gives are not always drawn.

Assays:
Format in all cases: in vivo
[1] = system: epilepsy-prone (EP) subline of BALB/c mice, PTZ-induced convulsions; assay: PTZ-induced convulsive reaction in genetically epilepsy-prone (EP) mice, compounds given i.p.; details: for anticonvulsive effect against PTZ-induced convulsive reaction (FIG. 1): 10 mg/kg i.p. 30 minutes prior to PTZ i.p., recorded 30 min
Procedure: The animal model used is epilepsy-prone (EP) subline of mice that was selectively bred from a strain of BALB/c mice (Dolina et al. in Epilepsia (1993) 43: 33-42).
EP mice were subjected to seizure induction by intraperitoneal (i.p.) injection of pentylenetetrazol (PTZ) 50-60 mg/kg dissolved in saline. The EP animals were i.p. treated with the tested compound(s) 10 to 60 minutes prior to the PTZ injection.
The tested compounds were the following: • 1) NC-001 10 mg/kg • 2) Pyridoxine hydrochloride (=Vitamin B6) 10 mg/kg • 3) GABA 10 mg/kg • 4) Separately injected Vitamin B6 and GABA, 10 mg/kg each. A group of EP animals injected with PTZ only, with no further treatment, served as a control group.
The intensity of the PTZ-induced convulsive reaction for each group was evaluated in scores according to the following scale:
(§1) Intensity of PTZ-induced Convulsive Reaction in Scores • 1. A few myoclonic jerks (less than 10) • 2. Less than 20 jerks • 3. Less than 30 jerks • 4. 30-40 jerks/jerks and jumps/short partial convulsions. • 5. Uninterrupted jerks/series of jerks and jumps/repeated partial convulsions • 5.5 Abortive generalized convulsions • 6. Single generalized convulsive attack • 7. Series of jerks, jumps & single generalized convulsive attack; single generalized convulsions with further motor excitation • 7.5 Severe prolonged generalized convulsions • 8. Repeated generalized convulsions • 9. Series of jerks/jumps & repeated convulsions • 10. Status epilepticus • 12. Lethal convulsions
In each group of EP animals, convulsive reactions were recorded during the first 30 minutes following administration of the seizure inducer.
Genetically epilepsy-prone (EP) BALB/c mice, 3-5 animals in a group, were i.p. administered with either 5 mg/kg, 7.5 mg/kg or 10 mg/kg of NC-001 thirty minutes prior to i.p. injection of PTZ (60 mg/kg). The numbers of seizures were then recorded for each animal during 30 minutes following the PTZ injection. The intensity of convulsive reaction was scored for each of the treatment groups.

[2] = system: epilepsy-prone (EP) mice, PTZ-induced convulsions; assay: PTZ-induced convulsive reaction in EP mice, NC-001 orally administered; details: 30 mg/kg orally 30 min prior to PTZ 50 mg/kg i.p.; four female EP mice vs eight vehicle
Text: as §1
In order to test the ability of the vitamin B6-GABA conjugated compound to cross the GI barrier, epilepsy-prone (EP) mice were orally administered with NC-001.
A group of 12 female EP mice were i.p. treated with 50 mg/kg PTZ to induce seizures. Thirty minutes prior to PTZ administration, NC-001 at the dose of 30 mg/kg was orally administered to four of the animals (=treated group), the other eight animals were treated with vehicle only and served as a control group. All twelve animals were scored, during 30 minutes following i.p. PTZ administration, for intensity of convulsive reactions (see table of convulsive reaction scores as appear above in Example 4).

[3] = system: audiogenic sensitive rats, sound-induced convulsions; assay: Sound-induced convulsions in audiogenic sensitive rats chronically treated with PHT with or without pyridoxine; details: 100 db sound
Text: Phenyloin (PHT) is prescribed for medication of generalized […] generalized convulsions, complex partial seizures and simple partial seizures. […] In the experiments, intensity of 100 db sound stimulation was used. […] The second group included pyridoxine-untreated rats. […] Eleven rats were used in each group.

[4] = EP mice, 10 mg/kg i.p. 30 minutes prior to PTZ, six tested mice

For `NCCCC(=O)O` [GABA, γ-aminobutyric acid, reference compound], which “anticonvulsive effect against PTZ-induced convulsive reaction (FIG. 1)” value (“anticonvulsive effect” for short) ([1]; EP mice) is on record?
Its value is “did not show any anticonvulsive effect”.

With `Cc1ncc(COC(=O)CCCN)c(CO)c1O` [NC-001, [5-Hydroxy-6-methyl-4-(hydroxymethyl)-pyrid-3-yl]methyl-4-aminobutyrate, dihydrochloride] as the compound, how does the “EP mice that exhibited generalized convulsions” value ([1]; 5 mg/kg i.p. 30 min prior to PTZ 60 mg/kg i.p., FIG. 2) read?
The value was “two of the four”.

And the “effect on generalized PTZ-induced convulsions” value ([1]; 7.5 mg/kg i.p. 30 min prior to PTZ 60 mg/kg i.p., three EP mice, numerous jerks in all, FIG. 2)?
Its value is “prevented generalized PTZ-induced convulsions in all three treated EP mice”.

What about the “effect on generalized convulsive reactions” value ([1]; 10 mg/kg i.p. 30 min prior to PTZ 60 mg/kg i.p., single jerks in one mouse, FIG. 2) of the same compound?
The value was “completely prevented generalized convulsive reactions”.

And the “dose dependence of anti-convulsive effect” value ([1]; 5, 7.5, 10 mg/kg i.p., PTZ 60 mg/kg, FIG. 2)?
The value was “dose-dependent anti-convulsive protective effect”.

And the “anticonvulsive effect” value ([1]; EP mice)?
Its value is “almost a complete protection against the convulsive symptoms”.

And the “animals that had only few convulsive jerks” value [1, 4]?
The value was “two”.

And the “mice that did not show any convulsive reaction” value [1, 4]?
The value was “Four out of the six”.

What about the “protective effect, intensity of convulsive reactions (FIG. 3)” value [2] of the same compound?
Its value is “significant protective effect”.

With `O=C1NC(=O)C(c2ccccc2)(c2ccccc2)N1` [PHT, 5,5-Diphenyl-2,4-imidazolidinedione] as the compound, how does the “number of tests with sound-induced convulsive reactions” value ([3]; 22 tests per group, chronic PHT, days 13 and 14) read?
The value was 6.

What about the “tests resulting in sound-induced convulsions (percent of 22 tests)” value ([3]; PHT 75 mg/kg then 12 x 50 mg/kg once a day, tested days 13 and 14, 11 rats per group) of the same compound?
Its value is 27.3%.

How did the “anticonvulsive effect” value ([1]; EP mice) turn out when `Cc1ncc(CO)c(CO)c1O.Cl` [Vitamin B6, Pyridoxine hydrochloride, reference compound] was run?
Its value is “some protection against PTZ-induced generalized convulsions”.
